# Where two headings read alike, the source gives them in different places.
# Tests used:
# [1] = in vitro; conditions: human
# Description: Percent inhibition of viral replication was calculated by comparing the p24 and RT activity values from the test substance-treated infected cells with those from untreated infected cells. In parallel, the cytotoxicity of the compounds was examined using a microculture tetrazolium assay (MTA) of cell proliferation, as described.in the Zarling, Enrice, and Uckun articles Supra).
# Cellular Assays of Anti-HIV Activity and Cytotoxicity. […] Percent viral inhibition was calculated by comparing the RT activity values from the test substance-treated infected cells with RT values from untreated infected cells (i.e., virus controls).
# Antiviral susceptibility assays. Phenotypic drug susceptibility studies of HIV-1 isolates and strains were performed by measuring the production of the p24 gag protein in peripheral blood mononuclear cells (PBMC) from seronegative healthy volunteers in the presence of increasing concentrations of the anti-HIV agent using the quantitative Coulter HIV-1 p24 antigen ezyme immunoassay (EIA) and HIV-1 p24 Antigen Kinetic Standard (Beckman Coulter), as previously described (Uckun, 1998, Antimicrobial Agents and Chemotherapy 37(4): 835-38). Informed consent was obtained from the blood donors according to DHHS guidelines using consent forms approved by the Institutional Review Board. In brief, PBMC were cultured for 72 h in RPMI 1640 medium (Gibco) supplemented with 20% (vol/vol) heat-inactivated fetal bovine serum, 5% human interleukin-2 (Zeptometrix), 2 mM L-glutamine, 25 mM HEPES, 2 g/L NaHCO3, 100 U/ml penicillin/streptomycin (Gibco), 50 μg/ml gentamicin (Gibco), and 5 μg/ml phytohemagglutinin-P (PHA-P) (Sigma) for 24-72 hours prior to exposure to HIV at a multiplicity of infection of 0.001-0.1 during a 1-h adsorbtion period at 37±1° C. in a humidified 5-7% CO2 atmosphere. Subsequently, cells were cultured in 96-well microtiter plates (100 μl/well; 2×10^6 cells/ml, triplicate wells) in the presence of the anti-HIV agents at 6-7 different concentrations ranging from 0.0001 μM to 100 μM, and 25 μL aliquots of culture supernatants were removed from the wells on day 6 after infection for p24 EIA, as previously described (Uckun, 1998, Antimicrobial Agents and Chemotherapy, 37(4):835-38). Controls included uninfected and untreated cells (background control) and infected but untreated (virus control) cells. The p24 EIA utilizes a murine monoclonal antibody to HIV core protein used to coat microwell strips to which the antigen present in the test culture supernatant samples binds. Percent inhibition of viral replication was calculated by comparing the p24 values from the test substance-treated infected cells with p24 values from untreated infected cells (i.e., virus controls). The IC50 values were determined using the Statview statistics program (SAS Institute, Inc.). In parallel, the effects of various treatments on cell viability were also examined as previously described (Uckun, 1998, Antimicrobial Agents and Chemotherapy, 42:383-388). In brief, noninfected PBMC were treated with each compound for 5 days under identical experimental conditions. A microculture tetrazolium assay (MTA) was performed to quantitate cellular proliferation (Uckun, 1998, Antimicrobial Agents and Chemotherapy, 42:383-388).
# In parallel, the cytotoxicity of the compounds was examined using a microculture tetrazolium assay (MTA) of cell proliferation, as described (in the Zarling, Enrice, and Uckun articles Supra).
# [2] = test system: HIV-1 RT-MDR (NRTI-resistant, NNRTI-resistant); assay: p24 antigen assay, RT-MDR strain; format: cell-based
# [3] = Human immunodeficiency virus 1, RT-MDR(Con) control strain (M41L, L74V, T215Y, V106N)
# [4] = Human immunodeficiency virus 1, read-out: IC50 RTMDR, p24
# [5] = Human immunodeficiency virus 1, MT2, laboratory strain RT-MDR (V106N), MT-2 cells, Table 14
SMILES,"CC50 at 5 days ([1]; CC50, μM) [µM]","IC50 [2, 3] [µM]","IC50 [2, 4] [µM]","IC50 [2, 5] [µM]",further results
"Cc1cn([C@H]2C[C@H](N=[N+]=[N-])[C@@H](CO)O2)c(=O)[nH]c1=O [AZT, 3′-azido-3′-deoxythymidine]",95.6 ± 2.9,> 10,0.068,–,CC50 at 5 days ([1]; CC50): 0.0527 µM; IC50 at 5 days ([1]; PBMNC IC50 [MTA]): > 10 µM
"COC(=O)C(C)NP(=O)(OC[C@@H]1C=C[C@H](n2cc(C)c(=O)[nH]c2=O)O1)Oc1ccc(Br)cc1 (stereo partly shown) [Compound 1c, d4T-5′-[p-bromo-phenylmethoxyalaninyl phosphate]]",–,< 0.001,0.02 to 0.06,< 0.001,"CC50 at 5 days [1]: > 100 µM; IC50 at 5 days [1]: > 10 µM; IC50 ([2]; read-out: IC50 RTMDR, p24): 0.021 ± 0.012 µM"
"Cc1cn([C@H]2C=C[C@@H](CO)O2)c(=O)[nH]c1=O [d4T, 2′,3′-didehydro-2′,3′-dideoxythymidine]",4.5 ± 1.7,–,–,–,IC50 at 5 days ([1]; IC50 [MTA]): > 10 µM
Cc1ccnc2c1NC(=O)c1cccnc1N2C1CC1 [nevirapine],–,–,–,18 ± 8,"CC50 at 5 days ([1]; PBMC or MT-2 cells, CC50 values, data not shown): > 100 µM; CC50 at 5 days ([1]; peripheral blood mononuclear cells (PBMC), CC50, μM, viability of PBMC): 5.1 ± 2.3 µM"
